# Target: Cannabinoid receptor 2 (Homo sapiens, UniProt P34972)
# Assay: Binding Assay: Affinity binding tests were performed according to the experimental conditions described by M. Rinaldi-Carmona in J. Pharmacol. Exp. Therap. 1998, 287, 644-650, with membranes derived either from rodent tissues or from recombinant cell lines in which the human CB2 receptors were expressed (Munro et al., Nature 1993, 365, 61-65). The affinity of the compounds is expressed in the form of the IC50 (concentration causing 50% inhibition of specific binding of the tritiated ligand used in vitro).
# Chain of Cannabinoid receptor 2 (P34972 whole entry): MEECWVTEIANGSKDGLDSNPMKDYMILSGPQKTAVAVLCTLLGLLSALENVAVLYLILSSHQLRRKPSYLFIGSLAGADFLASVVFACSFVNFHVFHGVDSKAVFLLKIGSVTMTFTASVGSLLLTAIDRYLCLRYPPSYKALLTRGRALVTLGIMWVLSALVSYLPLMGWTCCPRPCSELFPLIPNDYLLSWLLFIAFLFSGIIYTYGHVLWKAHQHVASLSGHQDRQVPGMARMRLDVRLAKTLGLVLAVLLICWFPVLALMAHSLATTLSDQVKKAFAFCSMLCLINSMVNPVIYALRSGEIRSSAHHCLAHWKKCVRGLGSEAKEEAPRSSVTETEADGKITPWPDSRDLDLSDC
row,Structure (SMILES),IC50
1,COc1nc(NCCc2ccc(F)cc2)nc(-c2cc3c(Cl)cccc3[nH]2)n1,7 nM
2,COc1nc(NCCc2ccc(OC(F)F)cc2)nc(-c2ccc(Cl)c(C(C)(C)O)c2)n1,1.2 nM
3,COc1nc(NCCc2ccc(F)cc2)nc(-c2ccc(OC)c(C(C)(C)O)c2)n1,1 nM
4,COc1nc(NCCc2ccc(F)cc2)nc(-c2ccc(Cl)c(O)c2)n1,21 nM
5,CCOC(=O)COc1cc(-c2nc(NCCc3ccc(F)cc3)nc(OC)n2)ccc1Cl,10 nM
6,COc1nc(NCCc2ccc(OC(F)F)cc2)nc(-c2ccc(Cl)c(OCCCNS(C)(=O)=O)c2)n1,41 nM
7,COc1nc(NCCc2ccc(OCF)cc2)nc(-c2ccc(Cl)c(C(C)(C)O)c2)n1,3.9 nM
8,COc1nc(NCCc2ccc(F)cc2)nc(-c2ccc(Cl)c(OCC(N)=O)c2)n1,1 nM

# More lines, in order of falling IC50, values ahead:
row,IC50,Structure (SMILES)
1,29 nM,COc1cccc(-c2nc(NCCc3ccc(F)cc3)nc(OC)n2)c1
2,12 nM,COc1nc(NCCc2ccc(F)cc2)nc(-c2ccc(OC)c(S(=O)(=O)NC3CC3)c2)n1
3,12 nM,COc1nc(NCCc2ccc(F)cc2)nc(-c2cc3cc(F)ccc3[nH]2)n1
4,9 nM,COc1nc(NCCc2ccc(F)cc2)nc(-c2cccc(C(C)(C)O)c2)n1
